Laboratory results taken from patent US9957271B2, “Substituted bicyclic aza-heterocycles and analogues as sirtuin modulators” (GlaxoSmithKline, LLC, priority 2012, dated 2018).

Legend:
[1] = molecular target: T1, SIRT1 (Homo sapiens, UniProt Q96EB6); test: TAMRA based mass spectrometry assay of SIRT1 activity; format: biochemical; details: for Emax: read-out: TAMRA % Fold Act
T1 sequence (Q96EB6 1-747): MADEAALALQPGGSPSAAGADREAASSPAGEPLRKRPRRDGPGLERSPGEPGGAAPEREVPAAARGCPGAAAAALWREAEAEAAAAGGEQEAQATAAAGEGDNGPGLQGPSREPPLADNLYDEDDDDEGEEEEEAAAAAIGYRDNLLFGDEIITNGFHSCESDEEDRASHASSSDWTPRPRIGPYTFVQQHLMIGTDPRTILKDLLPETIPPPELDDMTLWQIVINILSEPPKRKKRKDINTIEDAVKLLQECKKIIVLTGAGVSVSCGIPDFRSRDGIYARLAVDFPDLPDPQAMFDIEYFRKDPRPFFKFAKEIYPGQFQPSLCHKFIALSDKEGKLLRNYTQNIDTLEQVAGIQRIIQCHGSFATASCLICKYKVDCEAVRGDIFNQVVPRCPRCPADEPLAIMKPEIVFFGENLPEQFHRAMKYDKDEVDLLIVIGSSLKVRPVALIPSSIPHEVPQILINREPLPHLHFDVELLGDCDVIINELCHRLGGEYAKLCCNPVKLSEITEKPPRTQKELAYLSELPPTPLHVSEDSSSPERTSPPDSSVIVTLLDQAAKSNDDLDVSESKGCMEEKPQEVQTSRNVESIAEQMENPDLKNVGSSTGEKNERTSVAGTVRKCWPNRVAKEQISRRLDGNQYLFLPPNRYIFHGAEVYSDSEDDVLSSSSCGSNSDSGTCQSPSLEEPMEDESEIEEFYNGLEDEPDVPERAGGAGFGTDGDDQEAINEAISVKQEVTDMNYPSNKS
Summary of the method: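 Recombinant N-terminal His-tagged human SIRT1 (10 nM, E. coli) incubated 25 min at 25 °C with 0.5 μM 5TMR-labelled p53-derived acetyl-peptide and 120 μM βNAD+ in Tris-acetate pH 8 buffer with DTT and 0.05% BSA, compound at varying concentrations. Stopped with formic acid; deacetylated peptide or OAADPR measured by mass spectrometry relative to DMSO controls.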

[2] = molecular target: T1, SIRT1; test: Trp mass spectrometry assay of SIRT1 activity; format: biochemical; details: for Emax: read-out: Trp % Fold Act
Summary of the method: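 His-tagged SIRT1 expressed in E. coli BL21(DE3), 10 nM, incubated 25 min at 25° C. with 0.5 μM Ac-RHKK(Ac)W-NH2 peptide and 120 μM βNAD+ in 50 mM HEPES pH 7.5, […], 1 mM DTT, 0.05% BSA; formic acid stop. OAADPR or deacetylated peptide measured by mass spectrometry; EC1.5 and percent maximum activation versus DMSO control.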

[3] = TAMRA peptide substrate, concentration giving 150% activation of SIRT1
[4] = TAMRA peptide substrate, percent maximum fold activation
[5] = Trp peptide substrate, concentration giving 150% activation of SIRT1
[6] = Trp peptide substrate, percent maximum fold activation
[7] = TAMRA assay, concentration giving 150% activation of SIRT1
[8] = TAMRA assay, percent maximum fold activation
[9] = Trp assay, concentration giving 150% activation of SIRT1
[10] = Trp assay, percent maximum fold activation
[11] = concentration of test compound giving 150% activation of SIRT1, TAMRA peptide substrate
[12] = percent maximum fold activation of SIRT1, TAMRA peptide substrate
[13] = concentration of test compound giving 150% activation of SIRT1, Trp peptide substrate
[14] = percent maximum fold activation of SIRT1, Trp peptide substrate

TAMRA EC1.5 [1, 3]	Emax [1, 4] [%]	Trp EC1.5 [2, 5]	Emax [2, 6] [%]	TAMRA EC1.5 (μM) [1, 7]	Emax [1, 8] [%]	Trp EC1.5 (μM) [2, 9]	Emax [2, 10] [%]	SMILES	further results
A (EC1.5<1 μM)	≥ 350	B (EC1.5 1-25 μM)	≥ 350					Cc1cc(-c2ccccc2C(F)(F)F)nn2c(NC(=O)c3ccccn3)cnc12 [Compound 407, N-(8-methyl-6-(2-(trifluoromethyl)phenyl)imidazo[1,2-b]pyridazin-3-yl)picolinamide]	
C (EC1.5>25 μM)	< 350	C (EC1.5>25 μM)	< 350					Cc1nn2ccc(-c3ccccc3C(F)(F)F)nc2c1NC(=O)c1cccnc1 [Compound 568]	
				A (EC1.5<1 μM)	≥ 350	A (EC1.5<1 μM)	≥ 350	O=C(Nc1cncc(OCC(O)CO)n1)c1cnc2ccc(-c3ccccc3C(F)(F)F)nn12 (stereo not shown) [Compound 213]	
A (EC1.5<1 μM)	≥ 350	A (EC1.5<1 μM)	≥ 350					O=C(Nc1cccc(N2CCOCC2)n1)c1ncn2ccc(-c3ccccc3C(F)(F)F)nc12 [Compound 454]	
B (EC1.5 1-25 μM)	≥ 350	A (EC1.5<1 μM)	≥ 350					O=C(Nc1cccc(O)n1)c1cnn2ccc(-c3ccccc3OC(F)(F)F)nc12 [Compound 580]	
				B (EC1.5 1-25 μM)	≥ 350	B (EC1.5 1-25 μM)	≥ 350	Cc1cc(-c2ccccc2C(F)(F)F)nn2c(C(=O)Nc3cccnc3)cnc12 [Compound 206]	
A (EC1.5<1 μM)	≥ 350	A (EC1.5<1 μM)	< 350					O=C(Nc1cnc2ccc(-c3ccccc3C(F)(F)F)nn12)c1ncccc1F [Compound 439]	
				A (EC1.5<1 μM)	≥ 350	A (EC1.5<1 μM)	≥ 350	Cc1cc(-c2ccccc2C(F)(F)F)nn2c(C(=O)Nc3ccnc(O[C@@H]4CCOC4)n3)cnc12 [Compound 598]	
B (EC1.5 1-25 μM)	≥ 350	B (EC1.5 1-25 μM)	< 350					O=C(Nc1ccncc1F)c1cnn2ccc(-c3ccccc3C(F)(F)F)nc12 [Compound 517]	
				A (EC1.5<1 μM)	≥ 350	A (EC1.5<1 μM)	≥ 350	Cc1cnc(NC(=O)c2c(C)nn3ccc(-c4ccccc4C(F)(F)F)nc23)cn1 [Compound 710]	
A (EC1.5<1 μM)	≥ 350	B (EC1.5 1-25 μM)	< 350					O=C(Nc1cccnn1)c1cnn2ccc(-c3ccccc3C(F)(F)F)nc12 [Compound 505]	
				A (EC1.5<1 μM)	≥ 350	A (EC1.5<1 μM)	≥ 350	Cc1ccnc(NC(=O)c2c(C)nn3ccc(-c4ccccc4C(F)(F)F)nc23)c1 [Compound 683]	
				B (EC1.5 1-25 μM)	≥ 350	B (EC1.5 1-25 μM)	≥ 350	Cc1cc2ncc(C(=O)Nc3ccccn3)n2nc1-c1ccccc1C(F)(F)F [Compound 224]	

More lines, now with the values behind:

SMILES	TAMRA EC1.5 [1, 3]	Emax [1, 4] [%]	Trp EC1.5 [2, 5]	Emax [2, 6] [%]	TAMRA EC1.5 (μM) [1, 7]	Emax [1, 8] [%]	Trp EC1.5 (μM) [2, 9]	Emax [2, 10] [%]	further results
Cc1cnc(C(=O)Nc2cnc3ccc(-c4ccccc4OC(F)(F)F)nn23)s1 [Compound 320]					A (EC1.5<1 μM)	≥ 350	B (EC1.5 1-25 μM)	< 350	
Cc1cc(C)nc(NC(=O)c2cnc3ccc(N4CC[C@H](F)C4)nn23)c1 [Compound 490]	B (EC1.5 1-25 μM)	≥ 350	B (EC1.5 1-25 μM)	< 350					
Cc1nc(C(=O)Nc2cnc3ccc(-c4ccccc4C(F)(F)F)nn23)cs1 [Compound 273]					A (EC1.5<1 μM)	≥ 350	B (EC1.5 1-25 μM)	≥ 350	
O=C(Nc1nc(CN2CCOCC2)cs1)c1cnc2ccc(-c3ccccc3C(F)F)nn12 [Compound 35]									TAMRA EC1.5 (μM) [1, 11]: B (EC1.5 1-25 μM); Emax [1, 12]: < 350%; Trp EC1.5 (μM) [2, 13]: C (EC1.5>25 μM); Emax [2, 14]: < 350%
Cc1cnc(C(=O)Nc2cnc3c(C)cc(-c4ccccc4C(F)(F)F)nn23)s1 [Compound 424]	A (EC1.5<1 μM)	≥ 350	B (EC1.5 1-25 μM)	< 350					
Cc1cc2ncc(NC(=O)c3ccncn3)n2nc1-c1ccccc1C(F)(F)F [Compound 443]	A (EC1.5<1 μM)	≥ 350	C (EC1.5>25 μM)	< 350					
O=C(Nc1cccnn1)c1cnc2ccc(-c3ccccc3OC(F)(F)F)nn12 [Compound 395]					A (EC1.5<1 μM)	≥ 350	A (EC1.5<1 μM)	≥ 350	
O=C(Nc1ncccn1)c1cnn2ccc(-c3ccccc3OC(F)(F)F)nc12 [Compound 559]	B (EC1.5 1-25 μM)	< 350	B (EC1.5 1-25 μM)	≥ 350					
O=C(Nc1cccc(CN2CCOCC2)n1)c1cnc2ccc(-c3cccc(Cl)c3)nn12 [Compound 26]									TAMRA EC1.5 (μM) [1, 11]: A (EC1.5<1 μM); Emax [1, 12]: ≥ 350%; Trp EC1.5 (μM) [2, 13]: C (EC1.5>25 μM); Emax [2, 14]: < 350%
O=C(Nc1ccnc(O)c1)c1cnn2ccc(-c3ccccc3OC(F)(F)F)nc12 [Compound 779]					A (EC1.5<1 μM)	≥ 350	A (EC1.5<1 μM)	≥ 350	
O=C(Nc1cccnc1)c1cnc2ccc(-c3cccc(F)c3Cl)nn12 [Compound 183]									TAMRA EC1.5 (μM) [1, 11]: B (EC1.5 1-25 μM); Emax [1, 12]: < 350%; Trp EC1.5 (μM) [2, 13]: C (EC1.5>25 μM); Emax [2, 14]: < 350%
O=C(Nc1nccc(OCC(F)(F)F)n1)c1cnc2ccc(-c3ccccc3C(F)(F)F)nn12 [Compound 311]					A (EC1.5<1 μM)	≥ 350	A (EC1.5<1 μM)	≥ 350	
CS(=O)(=O)c1cccc(-c2ccc3ncc(C(=O)Nc4nccs4)n3n2)c1 [Compound 11]									TAMRA EC1.5 (μM) [1, 11]: C (EC1.5>25 μM); Emax [1, 12]: < 350%; Trp EC1.5 (μM) [2, 13]: A (EC1.5<1 μM); Emax [2, 14]: ≥ 350%
Cc1ccnc(NC(=O)c2cnc3ccc(-c4ccccc4OC(F)(F)F)nn23)n1 [Compound 401]	A (EC1.5<1 μM)	≥ 350	A (EC1.5<1 μM)	≥ 350					
COCCOc1cc(NC(=O)c2cnc3ccc(-c4ccccc4C(F)(F)F)nn23)ncn1 [Compound 663]					A (EC1.5<1 μM)	≥ 350	B (EC1.5 1-25 μM)	< 350	
O=C(Nc1ccnc(OCC(O)CO)n1)c1cnc2ccc(-c3ccccc3C(F)(F)F)nn12 (stereo not shown) [Compound 74]									TAMRA EC1.5 (μM) [1, 11]: A (EC1.5<1 μM); Emax [1, 12]: ≥ 350%; Trp EC1.5 (μM) [2, 13]: A (EC1.5<1 μM); Emax [2, 14]: ≥ 350%
Cc1nc2ccc(-c3ccccc3OC[C@H](O)CO)nn2c1C(=O)Nc1ccccn1 [Compound 815, (R)-6-(2-(2,3-dihydroxypropoxy)phenyl)-2-methyl-N-(pyridin-2-yl)imidazo[1,2-b]pyridazine-3-carboxamide]					A (EC1.5<1 μM)	≥ 350	A (EC1.5<1 μM)	≥ 350	
Cc1nc2ccc(-c3cccc(F)c3)nn2c1C(=O)Nc1cccnn1 [Compound 767]					B (EC1.5 1-25 μM)	< 350	A (EC1.5<1 μM)	≥ 350	
